Here are results for 10 molecules from publication PMC9862759 (Viruses, 2023).

As usually defined, the IC50 is the concentration at which inhibition is half-maximal. As a reminder, the Kd is the constant that tells how readily two partners part at equilibrium. The low end stands for a tighter complex, the high end for a looser complex.

Where two headings read alike, the source gives them in different places.

Series [1] relates to SARS-CoV-2 pseudovirus. Kind of series: microbe, parasite or virus in culture. The note with it: Severe acute respiratory syndrome-related coronavirus, read-out: IC50 (inhibition of pseudovirus entry into host cells).
In series [2] the test system is Beas-2B cells. Kind of series: MTT cytotoxicity on human normal cell line Beas-2B (24 h). The note with it: for IC50: Homo sapiens, BEAS-2B, 24 h, read-out: IC50 Values of Human Normal Cell Lines, Beas-2B. The series is classed as cell-based.
For series [3], the system named is HEK 293 cells. The series can be described thus: MTT cytotoxicity on human normal cell line HEK 293 (24 h). The series is classed as cell-based. The note with it: for IC50: Homo sapiens, HEK293, 24 h, read-out: IC50 Values of Human Normal Cell Lines, HEK 293.
The target in series [4] is SARS-CoV-2 spike RBD protein (Severe acute respiratory syndrome coronavirus 2, UniProt P0DTC2). The series can be described thus: biochemical. The series is classed as binding.
Series [5] concerns LO2 cells. The series can be described thus: MTT cytotoxicity on human normal cell line LO2 (24 h). The series is classed as cell-based. Conditions: for IC50: Homo sapiens, L02, 24 h, read-out: IC50 Values of Human Normal Cell Lines, LO2.
Series [6] has as its system HEK-293T-ACE2^h cells. Kind of series: MTT cytotoxicity assay on host cells (4 h). The note with it: for CC0 (maximum nontoxic concentration) / TC50 (concentration reducing cell viability by 50%): MTT, 4 h. The series is classed as cell-based, human. On the technique in general: Tetrazolium dyes change colour on reduction, which living cells bring about.
The test system of series [7] is SARS-CoV-2 pseudovirus. The note with it: for IC50: read-out: IC50 (inhibition of pseudovirus entry into host cells).

In the case of `O=c1c(O)c(-c2ccc(O)cc2)oc2cc(O)cc(O)c12` [compound 14, Kaempferol], the half-maximal inhibitory concentration (IC50) was less than 50 µM in series [1]; more than 200 µM in series [2]; more than 200 µM in series [3]; more than 200 µM in series [5]; 34.6 ± 7.69 µM in series [7]. This molecule gave a Kd in series [4] of 18.5 ± 5.49 µM. Moreover, in series [6], the “CC0 (maximum nontoxic concentration)” value was 200 µM. Moreover, the “TC50 (concentration reducing cell viability by 50%)” value in series [6] is more than 200 µM. Also, the “SI (ratio of TC50 to IC50)” value in series [7] is listed as more than 5.77.
In the case of `O=c1c(O)c(-c2ccc(O)c(O)c2)oc2cc(O)cc(O)c12` [compound 15, Quercetin], the 50% inhibitory concentration (IC50) in series [2], in series [3] and in series [5] was more than 500 µM in each case. The molecule further showed an equilibrium dissociation constant (Kd) in series [4] of 11.2 ± 3.85 µM. Also, the “CC0 (maximum nontoxic concentration)” value in series [6] came out at 300 µM. In addition, the “TC50 (concentration reducing cell viability by 50%)” value in series [6] is more than 500 µM.
In the case of `O=c1c(O)c(-c2cc(O)c(O)c(O)c2)oc2cc(O)cc(O)c12` [compound 16, Myricetin], the IC50 in series [2], in series [3] and in series [5] was more than 500 µM each time. The “cytotoxic effect (in words), Beas-2B” value in series [2] (tested dose of 500 μM) is recorded as “did not show any significant cytotoxic effect”. In series [3] (tested dose of 500 μM), the “cytotoxic effect (in words), HEK 293” value is on record as “did not show any significant cytotoxic effect”. In series [4], this molecule yielded a binding signal of 0.60 nm. The “cytotoxic effect (in words), LO2” value in series [5] (tested dose of 500 μM) is “did not show any significant cytotoxic effect”. Moreover, in series [6] (500 μM), the “cytotoxicity to the host cells (in words)” value is “did not demonstrate any cytotoxicity”. For the same molecule, the “CC0 (maximum nontoxic concentration)” value in series [6] was 300 µM. Also, the “TC50 (concentration reducing cell viability by 50%)” value in series [6] is more than 500 µM.
As for `Oc1cc(O)c2c(c1)O[C@H](c1ccc(O)c(O)c1)[C@H](O)C2` [compound 22, (-)-Epicatechin], the 50% inhibitory concentration (IC50) was 146 ± 20.8 µM in series [1], more than 500 µM in series [2], more than 500 µM in series [3] and more than 500 µM in series [5]. Further, the “CC0 (maximum nontoxic concentration)” value in series [6] is 300 µM. Besides, the “TC50 (concentration reducing cell viability by 50%)” value in series [6] was more than 500 µM. Moreover, the “SI (ratio of TC50 to IC50)” value in series [7] was more than 3.43.
`Oc1cc(O)c2c(c1)O[C@H](c1cc(O)c(O)c(O)c1)[C@H](O)C2` [compound 23, (-)-Epigallocatechin]: the 50% inhibitory concentration (IC50) in series [1] is 74.2 ± 10.7 µM; in series [2], 369 ± 1.7 µM; in series [3], more than 500 µM; in series [5], 483.3 ± 1.52 µM. In addition, the “CC0 (maximum nontoxic concentration)” value in series [6] was determined as 200 µM. Besides, the “TC50 (concentration reducing cell viability by 50%)” value in series [6] came to 453.10 ± 4.55 µM. Moreover, the “SI (ratio of TC50 to IC50)” value in series [7] is listed as 6.11.
As for `O=C(O[C@@H]1Cc2c(O)cc(O)cc2O[C@@H]1c1ccc(O)c(O)c1)c1cc(O)c(O)c(O)c1` [compound 24, (-)-Epicatechin gallate], the IC50 in series [1] is 58.8 ± 3.25 µM; in series [2], more than 500 µM; in series [3], more than 500 µM; in series [5], more than 500 µM. The “CC0 (maximum nontoxic concentration)” value in series [6] was determined as 300 µM. The “TC50 (concentration reducing cell viability by 50%)” value in series [6] was more than 500 µM. Besides, the “SI (ratio of TC50 to IC50)” value in series [7] was more than 8.51.
Turning to `O=C(O[C@@H]1Cc2c(O)cc(O)cc2O[C@@H]1c1cc(O)c(O)c(O)c1)c1cc(O)c(O)c(O)c1` [compound 25, (-)-Epigallocatechin gallate], the IC50 in series [1] was less than 50 µM; in series [2], more than 500 µM; in series [3] it was more than 500 µM; in series [5], 430 ± 6.98 µM; in series [7], 31.3 ± 7.4 µM. Also, the “CC0 (maximum nontoxic concentration)” value in series [6] came to 300 µM. Moreover, in series [6], the “TC50 (concentration reducing cell viability by 50%)” value is more than 500 µM.
Take `O=C(O[C@@H]1Cc2c(O)cc(O)cc2O[C@H]1c1cc(O)c(O)c(O)c1)c1cc(O)c(O)c(O)c1` [compound 26, (-)-Gallocatechin gallate]: the IC50 in series [1] was less than 50 µM; in series [2], more than 500 µM; in series [3] it was more than 500 µM; in series [5], 433 ± 8.96 µM; in series [7], 43.4 ± 2.93 µM. Further, in series [6], the “CC0 (maximum nontoxic concentration)” value is 300 µM. The “TC50 (concentration reducing cell viability by 50%)” value in series [6] was more than 500 µM. In addition, the “SI (ratio of TC50 to IC50)” value in series [7] is recorded as more than 11.52.
On to `Oc1cc(O)c2c(c1)O[C@H](c1ccc(O)c(O)c1)[C@@H](O)[C@@H]2c1c(O)cc(O)c2c1O[C@H](c1ccc(O)c(O)c1)[C@H](O)C2` [compound 30, Procyanidin B-4], for which the IC50 in series [1] was 151 ± 28.1 µM; in series [2] it was more than 500 µM; in series [3], more than 500 µM; in series [5], more than 500 µM. In addition, the “CC0 (maximum nontoxic concentration)” value in series [6] is 300 µM. In addition, the “TC50 (concentration reducing cell viability by 50%)” value in series [6] is more than 500 µM. In series [7], the “SI (ratio of TC50 to IC50)” value is more than 3.30.
For `Oc1cc(O)c2c(c1)O[C@H](c1ccc(O)c(O)c1)[C@H](O)[C@H]2c1c(O)cc(O)c2c1O[C@H](c1ccc(O)c(O)c1)[C@H](O)[C@H]2c1c(O)cc(O)c2c1O[C@H](c1ccc(O)c(O)c1)[C@H](O)C2` [compound 31, Procyanidin C-1], the IC50 in series [1] was 173 ± 20.7 µM; in series [2] it was more than 500 µM; in series [3] it was more than 500 µM; in series [5], more than 500 µM. In addition, the “CC0 (maximum nontoxic concentration)” value in series [6] worked out at 300 µM. The “TC50 (concentration reducing cell viability by 50%)” value in series [6] is more than 500 µM. In series [7], the “SI (ratio of TC50 to IC50)” value is on record as more than 2.90.
